Test results as given in US12667565B2, “Use of composition for enhancing anticancer effect, comprising ERRy inhibitor as active ingredient” (NOVMETAPHARMA CO., LTD., priority 2019, dated 2026).

How the values were obtained:
Huh7-SR cell line [1] = test: Cell death by sorafenib (annexin/PI FACS, cleaved caspase-3); type: cell-based; conditions: Huh7-SR cells; FIGS. 1A to 1C
Experimental: (§1) Hepatocarcinoma cell lines [Huh7 cells (Korea Cell Line Bank (KCLB) No. 60104), SK-Hep cells (ATCC® HTB-52™)] were continuously exposed to sorafenib (gradually increasing to 10 μM) to construct sorafenib-resistant liver cancer cell lines (Huh7-SR and SK-Hep-R cell lines). To evaluate the cancer cell death by FACS, first, a cancer cell line was incubated in FITC-bound annexin and propidium iodide (PI) for 15 minutes, and annexin and PI binding were then measured by flow cytometry to acquire data using a BD Accuri C6 flow cytometer (BD Biosciences) and analyzed with the Accuri C6 analysis program (BD Biosciences)/FlowJo software (FlowJo, LLC.). Cancer cell line death was evaluated using a cleaved caspase-3 antibody (Cell Signaling Technology).

SK-Hep-R cell line [2] = test: as above; type: cell-based; conditions: SK-Hep-R cells; FIGS. 1A to 1C
Experimental: as §1

[3] = system: Huh7-R sorafenib-resistant liver cancer cell line; test: Cell proliferation (trypan blue cell count, hemocytometer); type: cell-based; conditions: FIG. 4A
Experimental: (§2) The present inventors have performed experiments using sorafenib-resistant liver cancer cell lines (Huh7-SR and SK-Hep-R cell lines) and a liver cancer cell line-derived animal model (xenograft). To determine an effect of the synthetic compound DN200434, which is an inverse agonist against ERRγ, on the proliferation of liver cancer cells and ROS generation, ROS was measured using a cell count and 2′,7-dichlorofluorescin diacetate (DCF-DA). Finally, after a sorafenib-resistant liver cancer cell line was injected into […] to induce the formation of sorafenib-resistant liver cancer, changes in size of liver cancer were confirmed in the group injected with the inverse agonist against ERRγ (DN200434) and sorafenib and the group injected with the control drug.
(§3) In order to investigate an effect of the compound (DN200434) represented by Formula 1, which is an inverse agonist against ERRγ, on ROS generation in sorafenib-resistant liver cancer cells, the effect was measured by FACS using 2′,7′-dichlorohydrofluorescein diacetate (H2-DCF-DA; Invitrogen, USA) as an ROS probe. Drug-resistant cells were treated with sorafenib (10 μM) and the DN200434 compound (12 μM) for 24 hours, and 10 μM H2-DCF-DA was added to the cells. Then, the cells were incubated for 30 minutes, and washed with PBS, and data was collected using a BD Accuri™ C6 flow cytometer (BD Bioscience, USA), and analyzed using an Accuri™ C6 analysis program (BD Bioscience, USA). To determine the number of cells, the sorafenib-resistant liver cancer cell line was treated with the DN200434 compound (12 μM) in combination with sorafenib (10 μM), and stained with trypan blue, and the number of cells was then measured using a hemocytometer.

[4] = system: SK-Hep-R sorafenib-resistant liver cancer cell line; test: as above; type: cell-based; conditions: FIG. 4B
Experimental: as §2, §3

Huh7-SR cell line [5] = test: ROS generation measured by FACS with H2-DCF-DA; type: cell-based; conditions: DN200434 12 μM and sorafenib 10 μM, 24 hours, FIG. 3A
Experimental: (§4) The present inventors have performed experiments using sorafenib-resistant liver cancer cell lines (Huh7-SR and SK-Hep-R cell lines) and a liver cancer cell line-derived animal model (xenograft). To determine an effect of the synthetic compound DN200434, which is an inverse agonist against ERRγ, on the proliferation of liver cancer cells and ROS generation, ROS was measured using a cell count and 2′,7-dichlorofluorescin diacetate (DCF-DA). […]
as §3, with “Drug-resistant cells were treated with sorafenib (10 μM) and the DN200434 compound (12 μM) for 24 hours, and 10 μM H2-DCF-DA was added to the cells.” left out

SK-Hep-R cell line [6] = test: ROS generation measured by FACS with H2-DCF-DA; type: cell-based; conditions: DN200434 12 μM and sorafenib 10 μM, 24 hours, FIG. 3B
Experimental: as §4
as §3, with “Drug-resistant cells were treated with sorafenib (10 μM) and the DN200434 compound (12 μM) for 24 hours, and 10 μM H2-DCF-DA was added to the cells.” left out

[7] = system: sorafenib-resistant liver cancer cell line Huh7-R; test: Sorafenib-resistant liver cancer animal model (xenograft); type: in vivo, mice
Experimental: as §2
(§5) The sorafenib-resistant liver cancer cell line Huh7-R was injected into mice in order to construct a sorafenib-resistant liver cancer animal model (xenograft). Thereafter, the inverse agonist against ERRγ (e.g., DN200434 (Formula 1)) was administered in combination with sorafenib, and the size change of the formed mass was measured. In this case, the group in which the sorafenib-resistant liver cancer-derived animal model was treated with sorafenib alone was used as the comparative control.

[8] = system: sorafenib-resistant liver cancer cell line SK-Hep-R; test: as above; type: in vivo, mice
Experimental: as §2, §5
An animal model derived from the sorafenib-resistant liver cancer cell line SK-Hep-R was constructed in the same manner as described above, and the effect of co-administration of the DN200434 compound represented by Formula 1, which is an inverse agonist against ERRγ, and sorafenib was confirmed.

[9] = DN200434 12 μM in combination with sorafenib 10 μM

Structure (SMILES)	cell death by sorafenib (Huh7-SR cell line [1])	cell death by sorafenib (SK-Hep-R cell line [2])	cell proliferation ([3]; sorafenib alone)	cell proliferation ([4]; sorafenib alone)	ROS (Huh7-SR cell line [5])	ROS (SK-Hep-R cell line [6])	body weight change ([7]; in combination with sorafenib vs sorafenib-alone control, FIG. 5D)	tumor size ([7]; in combination with sorafenib, compared to sorafenib-alone control, FIG. 5A)	tumor weight ([7]; in combination with sorafenib, compared to sorafenib-alone control, FIG. 5B)	tumor volume ([7]; in combination with sorafenib, compared to sorafenib-alone control, FIG. 5C)	body weight change ([8]; in combination with sorafenib vs sorafenib-alone control, FIG. 6D)	tumor size ([8]; in combination with sorafenib, compared to sorafenib-alone control, FIG. 6A)	tumor weight ([8]; in combination with sorafenib, compared to sorafenib-alone control, FIG. 6B)	tumor volume ([8]; in combination with sorafenib, compared to sorafenib-alone control, FIG. 6C)	cell proliferation [3, 9]	cell proliferation [4, 9]
CNC(=O)c1cc(Oc2ccc(NC(=O)Nc3ccc(Cl)c(C(F)(F)F)c3)cc2)ccn1 [sorafenib, reference compound]	did not increase	did not increase	not affected	not affected												
CC(C)N1CCN(c2ccc(/C(=C(/CCCO)c3ccccc3)c3ccc(O)cc3)cc2)CC1 [DN200434]					increase	increase	no difference	significantly decreased	significantly decreased	significantly decreased	no difference	remarkably decreased	remarkably decreased	remarkably decreased	significantly decreased	significantly decreased
